Earlier results, collected in article PMC4990482 (Nature chemical biology, 2016).

Tested on: EZH2

Structure (SMILES): CC[C@H](C)n1cc(C)c2c(C(=O)NCc3c(C)cc(C)[nH]c3=O)cc(-c3ccc(N4CCNCC4)nc3)cc21 [GSK126]
- selectivity for EZH2 versus EZH1: > 150 fold
